Earlier results on 4 compounds are cited in patent US6656915B1, “Inhibiting T-cell proliferation” (Biocryst Pharmaceuticals, Inc., priority 1999, dated 2003).

Like-named read-outs stand apart in the source and are kept apart here.

Data set [1] relates to human T-cells (CCRF-CEM and Molt-4 cells). To be noted: given with 2′-deoxyguanosine; CCRF-CEM and Molt-4 cells in cultures.
For data set [2], the system named is T-cells. To be noted: humans; PNP inhibitor without exogenous 2′-deoxyguanosine.
The target of data set [3] is PNP (Homo sapiens, UniProt P00491). To be noted: humans; indicating effective inhibition of PNP.
Chain of PNP (P00491 whole entry): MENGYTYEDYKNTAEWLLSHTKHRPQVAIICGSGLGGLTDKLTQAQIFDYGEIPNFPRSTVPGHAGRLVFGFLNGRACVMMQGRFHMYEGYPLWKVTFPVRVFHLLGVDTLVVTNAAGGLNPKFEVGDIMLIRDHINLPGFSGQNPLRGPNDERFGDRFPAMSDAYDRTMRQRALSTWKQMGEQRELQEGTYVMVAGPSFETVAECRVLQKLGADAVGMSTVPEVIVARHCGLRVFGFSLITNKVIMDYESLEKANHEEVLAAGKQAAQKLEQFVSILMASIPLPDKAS
The subject of data set [4] is peripheral blood lymphocytes. To be noted: rats.
The test system of data set [5] is peripheral blood lymphocytes. To be noted: dogs.
For data set [6] the following is noted: upon being administered to a host, alone.
Data set [7] concerns T-cells. To be noted: rats; given with 2′-deoxyguanosine.
The mark [8] stands for this setting: 2′-deoxyguanosine alone, without PNP inhibition.

In the case of `Nc1nc2nc(N)[nH]c2c(=O)[nH]1` [8-Aminoguanine], the “proliferation of human T-cells” value in data set [1] was “inhibits the proliferation”.

Take `Nc1nc2c(Cc3cccnc3)c[nH]c2c(=O)[nH]1` [9-(3-Pyridylmethyl)-9-deazaguanine]: the T-cell counts result in data set [2] is recorded as “did not reduce T-cell counts”. Moreover, in data set [3], the plasma inosine levels result is “increases plasma inosine levels”.

`Nc1nc2c(ncn2[C@H]2C[C@H](O)[C@@H](CO)O2)c(=O)[nH]1` [2′-deoxyguanosine]: the “cell counts (lymphopenia)” value in data set [4] (setting [8]) and in data set [5] (setting [8]) was “did not significantly decrease cell counts” throughout. The “degradation of exogenous 2′-deoxyguanosine” value in data set [6] is given as “rapidly degrades”.

In the case of `Nc1nc2c(nc(N)n2[C@@H]2O[C@H](CO)[C@@H](O)[C@H]2O)c(=O)[nH]1` [8-Aminoguanosine, reference compound], the peripheral blood lymphocytes entry in data set [4] (given with 2′-deoxyguanosine) and in data set [5] (given with 2′-deoxyguanosine) was “profound fall” in each case. Also, in data set [7], the “levels of 2′-deoxyguanosine triphosphate (dGTP) in T-cells” value is on record as “increased levels”.
